Structures are written as SMILES.

What is called logP is the decadic logarithm of the partition coefficient of the neutral form, usually between octanol and water. High values mean a more lipophilic compound, low ones a more hydrophilic compound.

`O=C(O)C=C1c2ccccc2N(c2ccccc2)C(=O)C1(O)Cc1ccccc1` (stereo not given): the logP stood at 2.57.
Then `Cc1ccc(Cl)c2c1NC(=O)C2OC(=O)Cc1ccccc1` (stereo not given), with 3.19.
In the case of `CN1C(=O)C(O)(Cc2ccccc2)C(=CC(=O)O)c2ccccc21` (stereo not given) it was 2.31; in that of `CCCCC1(O)C(=O)N(C)c2ccccc2C1=CC(=O)O` (stereo not given), 2.23.
Molecule `CCCCC1(O)C(=O)N(C)c2ccccc2C1=CC(=O)OCC` (stereo not given) gave a log partition coefficient (logP) of 4.21.
In the case of `Cc1cc(C)c2c(c1)NC(=O)C2OC(=O)Cc1ccccc1` (stereo not given) it was 3.22; in that of `O=C(O)C=C1c2ccccc2N(c2ccccc2)C(=O)C1(O)c1ccccc1` (stereo not given), 2.83.
In the case of `CCCCC1(O)C(=O)Nc2ccccc2C1=CC(=O)OCC` (stereo not given), the logP worked out at 4.47.
In the case of `O=C(O)C=C1c2ccccc2NC(=O)C1(O)Cc1ccccc1` (stereo not given) it was 2.27.
In the case of `CCCCC1(O)C(=O)N(c2ccccc2)c2ccccc2C1=CC(=O)O` (stereo not given) it was 2.44; in that of `CCCCC(=O)OC1C(=O)Nc2cc(C)cc(C)c21` (stereo not given), 3.19.
In the case of `CCCCC(=O)OC1C(=O)Nc2c(C)ccc(C)c21` (stereo not given) it was 3.2; in that of `CCOC(=O)C=C1c2ccccc2N(C)C(=O)C1(O)Cc1ccccc1` (stereo not given), 4.75; in that of `CCCCC1(O)C(=O)Nc2ccccc2C1=CC(=O)O` (stereo not given), 2.18.
Molecule `CCOC(=O)C=C1c2ccccc2NC(=O)C1(O)Cc1ccccc1` (stereo not given) registered a logP of 4.16.

The record behind these values is the SangsterLogP compilation.
